Where a name gives a salt, the structure may show the parent alone.
Target: T1, haematopoietic prostaglandin D synthase (H-PGDS) (Homo sapiens, UniProt O60760)
T1 construct: Full length human H-PGDS cDNA (Invitrogen Ultimate ORF 10H13026) was amplified by PCR; 6-His (N); TEV protease cleavage site (N); made in house; host or cells: E. coli BL21 (DE3*), vector pET22b+
Assay: H-PGDS RapidFire high throughput mass spectrometry assay (conversion of PGH2 to PGD2)
Format: biochemical
Conditions: 10 nM H-PGDS, PGH2 formed in situ by COX-2 from arachidonic acid; read-out: Potency Range (mean pIC50) (converted)
Procedure, shortened: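 RapidFire SPE–MS read-out calculated percent conversion from relative PGD2 and PGF2α (substrate surrogate) levels. Recombinant full-length human H-PGDS (His-tag, E. coli) turned over PGH2, produced in situ at ˜10 μM by human COX-2 (FLAG-tag, Sf9 cells) acting on arachidonic acid.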

T1 sequence (O60760 whole entry): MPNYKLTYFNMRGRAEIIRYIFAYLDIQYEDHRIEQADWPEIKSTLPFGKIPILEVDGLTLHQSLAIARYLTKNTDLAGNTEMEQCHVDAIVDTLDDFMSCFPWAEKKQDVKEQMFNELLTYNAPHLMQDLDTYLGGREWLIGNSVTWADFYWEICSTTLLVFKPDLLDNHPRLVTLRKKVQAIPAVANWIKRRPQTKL

O=C(NC1CN(c2nccc(Cl)n2)C1)[C@H]1C[C@H](Oc2cccc3scnc23)C1 [Example 74, (trans)-3-(Benzo[d]thiazol-4-yloxy)-N-(1-(4-chloropyrimidin-2-yl)azetidin-3-yl)cyclobutanecarboxamide] and Cc1cnnc(N2CC(NC(=O)[C@H]3C[C@H](Oc4cccc5scnc45)C3)C2)c1 [Example 241, (trans)-3-(Benzo[d]thiazol-4-yloxy)-N-(1-(5-methylpyridazin-3-yl)azetidin-3-yl)cyclobutanecarboxamide, trifluoroacetic acid salt] fall in the same range of IC50: 10 to 79.4 nM for the first, 10 to 79.4 nM for the second.

COc1ccc(F)cc1O[C@H]1C[C@H](C(=O)NC2CN(c3cc(C#N)ccn3)C2)C1 [Example 149, (trans)-N-(1-(4-Cyanopyridin-2-yl)azetidin-3-yl)-3-(5-fluoro-2-methoxyphenoxy)cyclobutanecarboxamide] and O=C(NC1CN(c2nccc(Cl)n2)C1)[C@H]1C[C@H](Oc2cc(F)ccc2OC(F)F)C1 [Example 7, (trans)-N-(1-(4-Chloropyrimidin-2-yl)azetidin-3-yl)-3-(2-(difluoromethoxy)-5-fluorophenoxy)cyclobutanecarboxamide] cannot be ordered by IC50: < 10 nM for the first, < 10 nM for the second.

NC(=O)c1csc(NC(=O)[C@H]2C[C@H](Oc3cccc4cccnc34)C2)n1 [Example 189, 2-((trans)-3-(Quinolin-8-yloxy)cyclobutanecarboxamido)thiazole-4-carboxamide, trifluoroacetic acid salt] and CC(=O)c1cnc(NC(=O)[C@H]2C[C@H](Oc3cccc4cccnc34)C2)s1 [Example 202, (trans)-N-(5-Acetylthiazol-2-yl)-3-(quinolin-8-yloxy)cyclobutanecarboxamide] fall in the same range of IC50: 10 to 79.4 nM for the first, 10 to 79.4 nM for the second.

First: Cn1nc(C2CC2)cc1NC(=O)N1CC(Oc2cccc3scnc23)C1 [Example 314, 3-(Benzo[d]thiazol-4-yloxy)-N-(3-cyclopropyl-1-methyl-1H-pyrazol-5-yl)azetidine-1-carboxamide]
Second: Cc1n[nH]c(NC(=O)N2CC(Oc3cccc4scnc34)C2)c1C#N [Example 329, 3-(Benzo[d]thiazol-4-yloxy)-N-(4-cyano-3-methyl-1H-pyrazol-5-yl)azetidine-1-carboxamide]
The IC50 of the first is lower: 10 to 79.4 nM for the first, 100 to 1000 nM for the second.

O=C(Nc1nc(C2CC2)co1)[C@H]1C[C@H](Oc2cccc3cccnc23)C1 [Example 178, (trans)-N-(4-Cyclopropyloxazol-2-yl)-3-(quinolin-8-yloxy)cyclobutanecarboxamide] and CC(=O)c1cnc(NC(=O)[C@H]2C[C@H](Oc3cccc4cccnc34)C2)o1 [Example 174, (trans)-N-(5-Acetvloxazol-2-yl)-3-(quinolin-8-yloxy)cyclobutanecarboxamide] fall in the same range of IC50: 10 to 79.4 nM for the first, 10 to 79.4 nM for the second.

First: O=C(NC1CCN(c2ncc(F)cn2)CC1)[C@H]1C[C@H](Oc2cc(F)cc3scnc23)C1 [Example 117, (trans)-3-((6-Fluorobenzo[d]thiazol-4-yl)oxy)-N-(1-(5-fluoropyrimidin-2-yl)piperidin-4-yl)cyclobutanecarboxamide]
Second: C[C@]1(O)C[C@@H](NC(=O)[C@H]2C[C@H](Oc3cc(F)cc4scnc34)C2)C1 [Example 131, (trans)-3-((6-Fluorobenzo[d]thiazol-4-yl)oxy)-N-((cis)-3-hydroxy-3-methylcyclobutyl)cyclobutanecarboxamide]
The IC50 of the first is lower: 10 to 79.4 nM for the first, 100 to 1000 nM for the second.

CC(=O)c1cnc(NC(=O)[C@H]2C[C@H](Oc3cccc4ccoc34)C2)s1 [Example 264, (trans)-N-(5-Acetylthiazol-2-yl)-3-(benzofuran-7-yloxy)cyclobutanecarboxamide] and O=C(Nc1ncc(CO)s1)[C@H]1C[C@H](Oc2cc(F)ccc2OC(F)F)C1 [Example 12, (trans)-3-(2-(Difluoromethoxy)-5-fluorophenoxy)-N-(5-(hydroxymethyl)thiazol-2-yl)cyclobutanecarboxamide] fall in the same range of IC50: 10 to 79.4 nM for the first, 10 to 79.4 nM for the second.

First: COc1ccccc1O[C@H]1C[C@H](C(=O)N[C@H]2CC[C@H](C(C)(C)O)CC2)C1 [Example 284, (trans)-N-((trans)-4-(2-hydroxypropan-2-yl)cyclohexyl)-3-(2-methoxyphenoxy)cyclobutanecarboxamide]
Second: CC(C)(O)[C@H]1CC[C@H](NC(=O)[C@H]2C[C@H](Oc3cc(F)ccc3Cl)C2)CC1 [Example 230, (trans)-3-(2-Chloro-5-fluorophenoxy)-N-((trans)-4-(2-hydroxypropan-2-yl)cyclohexyl)cyclobutanecarboxamide]
The IC50 of the first is lower: 10 to 79.4 nM for the first, 100 to 1000 nM for the second.

O=C(N[C@H]1CC[C@H](Nc2ncccn2)CC1)[C@H]1C[C@H](Oc2cc(F)ccc2OC(F)F)C1 [Example 10, (trans)-3-(2-(Difluoromethoxy)-5-fluorophenoxy)-N-((trans)-4-(pyrimidin-2-ylamino)cyclohexyl)cyclobutanecarboxamide] and COc1ccc(F)cc1O[C@H]1C[C@H](C(=O)N[C@H]2CC[C@H](OC)CC2)C1 [Example 150, (trans)-3-(5-Fluoro-2-methoxyphenoxy)-N-((trans)-4-methoxycyclohexyl)cyclobutanecarboxamide] fall in the same range of IC50: 10 to 79.4 nM for the first, 10 to 79.4 nM for the second.

O=C(NC1CCCCC1)N[C@H]1C[C@H](NC(=O)[C@H]2C[C@H](Oc3cccc4scnc34)C2)C1 [Example 67, (trans)-3-(Benzo[d]thiazol-4-yloxy)-N-((trans)-3-(3-cyclohexylureido)cyclobutyl)cyclobutanecarboxamide] and CC(=O)c1coc(N2CC(NC(=O)[C@H]3C[C@H](Oc4cccc5scnc45)C3)C2)n1 [Example 47, (trans)-N-(1-(4-Acetyloxazol-2-yl)azetidin-3-yl)-3-(benzo[d]thiazol-4-yloxy)cyclobutanecarboxamide] fall in the same range of IC50: 100 to 1000 nM for the first, 100 to 1000 nM for the second.

First: Cc1nnc(NC(=O)[C@H]2C[C@H](Oc3cccc4scnc34)C2)o1 [Example 79, (trans)-3-(Benzo[d]thiazol-4-yloxy)-N-(5-methyl-1,3,4-oxadiazol-2-yl)cyclobutanecarboxamide]
Second: Cc1nnc(NC(=O)[C@H]2C[C@H](Oc3cccc4scnc34)C2)s1 [Example 331, (trans)-3-(Benzo[d]thiazol-4-yloxy)-N-(5-methyl-1,3,4-thiadiazol-2-yl)cyclobutane-1-carboxamide]
The IC50 of the first is higher: 100 to 1000 nM for the first, 10 to 79.4 nM for the second.

Compared with Cc1nccc(N2CC(NC(=O)N3CC(Oc4cc(F)cc5scnc45)C3)C2)n1 [Example 122, 3-((6-Fluorobenzo[d]thiazol-4-yl)oxy)-N-(1-(2-methylpyrimidin-4-yl)azetidin-3-yl)azetidine-1-carboxamide], CC1(NC(=O)[C@H]2C[C@H](Oc3cc(F)cc4scnc34)C2)CN(c2cccnn2)C1 [Example 237, (trans)-3-((6-Fluorobenzo[d]thiazol-4-yl)oxy)-N-(3-methyl-1-(pyridazin-3-yl)azetidin-3-yl)cyclobutanecarboxamide] is higher in IC50: 10 to 79.4 nM for the first, 100 to 1000 nM for the second.

First: CC(C)(O)C12CC(NC(=O)N3CC(Oc4cccc5scnc45)C3)(C1)C2 [Example 316, 3-(Benzo[d]thiazol-4-yloxy)-N-(3-(2-hydroxypropan-2-yl)bicyclo[1.1.1]pentan-1-yl)azetidine-1-carboxamide]
Second: CC1C(Oc2cccc3scnc23)CN1C(=O)N[C@H]1CC[C@H](C(C)(C)O)CC1 (mixture of isomers) [Example 240, Racemic 3-(Benzo[d]thiazol-4-yloxy)-N-((trans)-4-(2-hydroxypropan-2-yl)cyclohexyl)-2-methylazetidine-1-carboxamide]
The IC50 of the first is higher: 100 to 1000 nM for the first, 10 to 79.4 nM for the second.

First: O=C(Nc1nccs1)[C@H]1C[C@H](Oc2cc(F)cc3cccnc23)C1 [Example 294, (trans)-3-((6-Fluoroquinolin-8-yl)oxy)-N-(thiazol-2-yl)cyclobutanecarboxamide]
Second: CC(C)(O)[C@H]1C[C@H](NC(=O)[C@H]2C[C@H](Oc3cc(F)cc4cccnc34)C2)C1 [Example 293, (trans)-3-((6-Fluoroquinolin-8-yl)oxy)-N-((trans)-3-(2-hydroxypropan-2-yl)cyclobutyl)cyclobutanecarboxamide]
The IC50 of the first is lower: 10 to 79.4 nM for the first, 100 to 1000 nM for the second.

CC(C)(O)[C@H]1CC[C@H](NC(=O)[C@H]2C[C@H](Oc3cccc(Cl)c3)C2)CC1 [Example 288, (trans)-3-(3-Chlorophenoxy)-N-((trans)-4-(2-hydroxypropan-2-yl)cyclohexyl)cyclobutanecarboxamide] and CC(C)(O)[C@H]1CC[C@H](NC(=O)[C@H]2C[C@H](Oc3cccc(Br)c3)C2)CC1 [Example 228, (trans)-3-(3-Bromophenoxy)-N-((trans)-4-(2-hydroxypropan-2-yl)cyclohexyl)cyclobutanecarboxamide] fall in the same range of IC50: 100 to 1000 nM for the first, 100 to 1000 nM for the second.

Compared with CC(C)(O)[C@H]1CC[C@H](NC(=O)N2CC(Oc3cc(C(N)=O)cc4scnc34)C2)CC1 [Example 330, 4-((1-(((trans)-4-(2-Hydroxypropan-2-yl)cyclohexyl)carbamoyl)azetidin-3-yl)oxy)benzo[d]thiazole-6-carboxamide], Cc1nc2c(OC3CN(C(=O)N[C@H]4CC[C@H](C(C)(C)O)CC4)C3)cccc2s1 [Example 300, N-((trans)-4-(2-Hydroxypropan-2-yl)cyclohexyl)-3-((2-methylbenzo[d]thiazol-4-yl)oxy)azetidine-1-carboxamide] is higher in IC50: 10 to 79.4 nM for the first, 1260 to 2000 nM for the second.

COc1ccc(F)cc1O[C@H]1C[C@H](C(=O)Nc2nnc(C)s2)C1 [Example 166, (trans)-3-(5-Fluoro-2-methoxyphenoxy)-N-(5-methyl-1,3,4-thiadiazol-2-yl)cyclobutanecarboxamide] and COc1ccc(F)cc1O[C@H]1C[C@H](C(=O)Nc2nc(C(=O)N(C)C)co2)C1 [Example 158, 2-((trans)-3-(5-Fluoro-2-methoxyphenoxy)cyclobutanecarboxamido)-N,N-dimethyloxazole-4-carboxamide] fall in the same range of IC50: 10 to 79.4 nM for the first, 10 to 79.4 nM for the second.

CNC(=O)c1ccc(N2CC(NC(=O)[C@H]3C[C@H](Oc4cccc5scnc45)C3)C2)nc1 [Example 38, 6-(3-((trans)-3-(Benzo[d]thiazol-4-yloxy)cyclobutanecarboxamido)azetidin-1-yl)-N-methylnicotinamide] was tested, and the IC50 was 10 to 79.4 nM.

Source: patent US11053234B2 (GlaxoSmithKline Intellectual Property Development Limited, priority 2016, dated 2021)
